Format in all cases: physicochemical
A short description of series [1]: Gelation test in solvents at room temperature. Set-up: key: S, soluble (starting test at 20 mg/mL); I, insoluble; P, precipitate; G, stable gel, the numbers after G are preliminary MGCs in mg/mL; UG, slightly unstable gels or partial gels, concentrations are 20 mg/mL unless otherwise noted. Particulars: Table 3. As to the method:
(§1) Gelation tests were performed by adding incremental amounts of compounds to a solvent or solvent system at room temperature and observing the results (i.e., gel formation, solubility of compounds, insolubility of compounds, or formation of a precipitate). […] The term “precipation” means that the compound dissolves upon heating and sonicating, however, it crashes out of solution when the heat is removed.
(§2) After the compounds were synthesized, they were screened for gelation properties. […] For the compounds with new chiral centers, they formed gels in aqueous environment preferentially.

Series [2] can be described thus: Gelation test in solvents at room temperature. Set-up: key to Gelation test result: I, insoluble; P, precipitating; S, soluble at ~20 mg/mL; G, gel at room temperature; number is minimum gelation concentration. The settings on record: for concentration of slightly unstable or partial gel (UG) / Gelation result / preliminary MGC (stable gel): Table 3; for Gelation test result: room temperature. How it is done:
as §1, §2

Series [3] in a line: Gelation test in solvents at room temperature. Set-up: key: I, insoluble; P, precipitating; S, soluble at ~20 mg/mL; G, gel at room temperature; number is minimum gelation concentration. Particulars: Table 3. How it is done: as §1, §2

Non-standard residues stand in square brackets, D forms with d. Residues, ends and D or L forms follow the SMILES beside them. *: point of attachment. Nphe = O=C(O)CNCc1ccccc1; Bz = O=C(c1ccccc1)*

Consider `COc1ccc(CN(CC(=O)Nc2ccc(Oc3ccc(NC(=O)CN(Cc4ccc(OC)cc4)C(=O)c4ccc(Br)cc4)cc3)cc2)C(=O)c2ccc(Br)cc2)cc1` [Compound 36], for which the Gelation result in series [1] (DMSO:H2O 1:1) is given as “UG”; in series [1] (DMSO:H2O 1:2) it was “P”; in series [1] (EtOH:H2O (1:2)) it was “P”; in series [1] (Water), “P”; in series [2] (EtOH), “S (S, soluble (starting test at 20 mg/mL))”; in series [3] (Hexane), “I”. The “concentration of slightly unstable or partial gel (UG)” value (“concentration” below) in series [2] (DMSO:H2O 1:1) stood at 20000 µg/mL.
For the compound `COc1ccc(CN(CC(=O)NCC(=O)O)C(=O)c2ccc(Br)cc2)cc1` [Compound 42], the Gelation result is “P” in series [1] (DMSO:H2O 1:1); “P” in series [1] (DMSO:H2O 1:2); “P” in series [1] (EtOH:H2O (1:2)); “P” in series [1] (Water); “S (S, soluble (starting test at 20 mg/mL))” in series [2] (EtOH); “I” in series [3] (Hexane).
In the case of `COC1OC(CO)C(O)C(O)C1N(CC(=O)NC1CCCCC1)C(=O)c1ccc(Br)cc1` (stereo not drawn) [Compound 40], the Gelation result in series [1] (DMSO:H2O 1:1) is on record as “G”; in series [1] (DMSO:H2O 1:2), “G”; in series [1] (EtOH:H2O (1:2)) it was “P”; in series [2] (EtOH), “S (S, soluble (starting test at 20 mg/mL))”; in series [2] (Hexane), “S (S, soluble (starting test at 20 mg/mL))”; in series [3] (Water) it was “I”. Also, the “preliminary MGC (stable gel)” value in series [2] (DMSO:H2O 1:1) and in series [2] (DMSO:H2O 1:2) was 20.0 mg/mL in each case.
As to `CC1(C)OCC(CN(CC(=O)NC2CCCCC2)C(=O)c2ccc(Br)cc2)O1` (stereo not drawn) [Compound 27], the Gelation result in series [1] (DMSO:H2O 1:1) was “G”; in series [1] (DMSO:H2O 1:2) it was “G”; in series [1] (EtOH:H2O (1:2)) it was “P”; in series [1] (EtOH), “P”; in series [2] (Hexane), “S (S, soluble (starting test at 20 mg/mL))”; in series [2] (Water), “S (S, soluble (starting test at 20 mg/mL))”. Also, the “preliminary MGC (stable gel)” value in series [2] (DMSO:H2O 1:1) and in series [2] (DMSO:H2O 1:2) was 20.0 mg/mL each time.
Take `COC1OC2COC(c3ccccc3)OC2C(O)C1N(CC(=O)NC1CCCCC1)C(C)=O` (stereo not drawn) [Compound 31]: the Gelation result in series [1] (DMSO:H2O 1:1) was “G”; in series [1] (DMSO:H2O 1:2) it was “G”; in series [1] (EtOH) it was “G”; in series [1] (Water), “P”; in series [2] (EtOH:H2O (1:2)), “S (S, soluble (starting test at 20 mg/mL))”; in series [3] (Hexane), “I”. The “preliminary MGC (stable gel)” value in series [2] (DMSO:H2O 1:1), in series [2] (DMSO:H2O 1:2) and in series [2] (EtOH) was 10.0 mg/mL throughout.
Consider `COc1ccc(CN(CC(=O)NCS(=O)(=O)c2ccc(C)cc2)C(=O)c2ccc(Br)cc2)cc1` [Compound 35], for which the Gelation result is recorded as “G” in series [1] (DMSO:H2O 1:1); “G” in series [1] (DMSO:H2O 1:2); “G” in series [1] (EtOH:H2O (1:2)); “P” in series [1] (EtOH); “I” in series [3] (Hexane); “I” in series [3] (Water). Moreover, the “preliminary MGC (stable gel)” value in series [2] (DMSO:H2O 1:1) worked out at 20.0 mg/mL; in series [2] (DMSO:H2O 1:2) it was 20.0 mg/mL; in series [2] (EtOH:H2O (1:2)) it was 10.0 mg/mL.
In the case of `O=C(CN(CC(O)CO)C(=O)c1ccc(Br)cc1)NC1CCCCC1` (stereo not drawn) [Compound 41], the Gelation result in series [2] (DMSO:H2O 1:1) is “S (S, soluble (starting test at 20 mg/mL))”; in series [2] (DMSO:H2O 1:2), “S (S, soluble (starting test at 20 mg/mL))”; in series [2] (EtOH:H2O (1:2)) it was “S (S, soluble (starting test at 20 mg/mL))”; in series [2] (EtOH), “S (S, soluble (starting test at 20 mg/mL))”; in series [2] (Water), “S (S, soluble (starting test at 20 mg/mL))”; in series [3] (Hexane) it was “I”.
For `CCOC(=O)CNC(=O)CN(C(=O)c1ccc(Br)cc1)C1C(OCC)OC2COC(c3ccccc3)OC2C1O` (stereo not drawn) [Compound 32], the Gelation result in series [1] (DMSO:H2O 1:1) is “G”; in series [1] (DMSO:H2O 1:2) it was “UG”; in series [1] (EtOH:H2O (1:2)), “G”; in series [1] (Water), “P”; in series [2] (EtOH) it was “S (S, soluble (starting test at 20 mg/mL))”; in series [3] (Hexane), “I”. For the same compound, the “preliminary MGC (stable gel)” value in series [2] (DMSO:H2O 1:1) and in series [2] (EtOH:H2O (1:2)) was 20.0 mg/mL in each case. In series [2] (DMSO:H2O 1:2), the “concentration” value stood at 20000 µg/mL.
Take `COc1ccc(C(C(=O)NC2CCCCC2)N(C(C)=O)[C@H](C)c2ccccc2)cc1` (single isomer, unassigned) [Compound 38b]: the results for the Gelation result in series [1] (EtOH:H2O (1:2)), in series [1] (Water) and in series [3] (DMSO:H2O 1:2) were “P”, “G” and “I”, respectively. Further, the “preliminary MGC (stable gel)” value in series [2] (Water) came to 21.0 mg/mL.
Take `COc1ccc(C(C(=O)NC2CCCCC2)N(C(C)=O)[C@H](C)c2ccccc2)cc1` (single isomer, unassigned) [Compound 38a]: the Gelation result in series [1] (DMSO:H2O 1:2) is “UG”; in series [1] (Hexane), “P”; in series [1] (Water) it was “UG”; in series [2] (EtOH) it was “S (S, soluble (starting test at 20 mg/mL))”; in series [3] (EtOH:H2O (1:2)) it was “I”. The figures for the “concentration” value in series [2] (DMSO:H2O 1:2) and in series [2] (Water) were 18000 µg/mL and 17000 µg/mL, respectively.
As for `CCOC(=O)CNC(=O)CN(CCNC(=O)OC(C)(C)C)C(=O)Cc1ccc2ccccc2c1` [Compound 33], the Gelation result in series [1] (DMSO:H2O 1:1) is given as “P”; in series [1] (DMSO:H2O 1:2), “P”; in series [1] (EtOH:H2O (1:2)), “P”; in series [1] (Water) it was “P”; in series [2] (EtOH) it was “S (S, soluble (starting test at 20 mg/mL))”; in series [3] (Hexane) it was “I”.
Take `O=C(CN(Cc1ccccc1)C(=O)c1ccc(C(=O)N(CC(=O)NC2CCCCC2)Cc2ccccc2)cc1)NC1CCCCC1` [Compound 29]: the Gelation result in series [1] (DMSO:H2O 1:1) is listed as “P”; in series [1] (DMSO:H2O 1:2), “G”; in series [1] (EtOH:H2O (1:2)) it was “P”; in series [1] (EtOH), “UG”; in series [1] (Water), “UG”; in series [3] (Hexane), “I”. For the same compound, the “preliminary MGC (stable gel)” value in series [2] (DMSO:H2O 1:2) worked out at 20.0 mg/mL. For the same compound, the “concentration” value in series [2] (Water) was determined as 20000 µg/mL.
As to `CCOC(=O)CNC(=O)CN(Cc1ccc(OC)cc1)C(=O)CCC(=O)NC1C(OC)OC2COC(c3ccccc3)OC2C1O` (stereo not drawn) [Compound 34], the Gelation result is recorded as “G” in series [1] (DMSO:H2O 1:1); “G” in series [1] (DMSO:H2O 1:2); “G” in series [1] (EtOH:H2O (1:2)); “G” in series [1] (EtOH); “G” in series [1] (Water); “I” in series [3] (Hexane). Besides, the “preliminary MGC (stable gel)” value came to 20.0 mg/mL in series [2] (DMSO:H2O 1:1); 10.0 mg/mL in series [2] (DMSO:H2O 1:2); 20.0 mg/mL in series [2] (EtOH:H2O (1:2)); 10.0 mg/mL in series [2] (EtOH); 10.0 mg/mL in series [2] (Water). The “gelation properties (in words)” value in series [2] (screening of Table 3 compounds) was “able to gelate in water as well as almost all the tested solvents”.
As for `COc1ccc(C(C(=O)NC2CCCCC2)N(Cc2ccccc2)C(C)=O)cc1` (racemic) [Compound 37], the Gelation result was “P” in series [1] (DMSO:H2O 1:2); “G” in series [1] (EtOH:H2O (1:2)); “UG” in series [1] (Water); “S (S, soluble (starting test at 20 mg/mL))” in series [2] (EtOH); “I” in series [3] (Hexane). The “preliminary MGC (stable gel)” value in series [2] (EtOH:H2O (1:2)) is recorded as 15.0 mg/mL. Moreover, the “concentration” value in series [2] (Water) was 17000 µg/mL.
For the compound `O=C(O)CNC(=O)CN(Cc1ccccc1)C(=O)c1ccc(C(=O)N(CC(=O)NCC(=O)O)Cc2ccccc2)cc1` [Compound 43], the Gelation result in series [1] (DMSO:H2O 1:1) is “UG”; in series [1] (DMSO:H2O 1:2), “UG”; in series [1] (Water), “P”; in series [2] (EtOH), “S (S, soluble (starting test at 20 mg/mL))”; in series [3] (Hexane), “I”. The “concentration” value in series [2] (DMSO:H2O 1:1) and in series [2] (DMSO:H2O 1:2) was 20000 µg/mL in each case.
Consider `O=C(CN(C(=O)c1ccccc1)c1ccccc1)NC1CCCCC1` [Compound 39], for which the Gelation result is reported as “P” in series [1] (DMSO:H2O 1:1); “P” in series [1] (DMSO:H2O 1:2); “P” in series [1] (EtOH:H2O (1:2)); “P” in series [1] (Hexane); “P” in series [1] (Water); “S (S, soluble (starting test at 20 mg/mL))” in series [2] (EtOH).
Take `CCOC(=O)CNC(=O)CN(Cc1ccccc1)C(=O)c1ccccc1` [Compound 22, Ethyl 2-(2-(N-benzylbenzamido)acetamido)acetate] (Bz-[Nphe]-Gly-OEt): the Gelation test result in series [2] (DMSO:H2O (1:1)) is recorded as “S (S, soluble at ~20 mg/mL)”; in series [2] (DMSO:H2O (1:2)) it was “P”; in series [2] (EtOH), “P”; in series [2] (EtOH:H2O (1:1)) it was “P”; in series [2] (EtOH:H2O (1:2)), “P”; in series [2] (H2O), “S (S, soluble at ~20 mg/mL)”. The Gelation test result in series [2] (Hexane) is “S (S, soluble at ~20 mg/mL)”.

These data come from US20140296354A1, “SYNTHESIS OF PEPTOID-BASED SMALL MOLECULAR GELATORS FROM MULTIPLE COMPONENT REACTIONS” (OLD DOMINION UNIVERSITY RESEARCH FOUNDATION, priority 2013, published 2014).
